In assay [1] the test system is HLA-A*24:02 transgenic mice. As to the kind of experiment: Peptide vaccine CTL induction, IFN-γ ELISpot, HLA-A*24:02 Tgm. The conditions noted are these: HLA-A*24:02-restricted short peptide vaccine once per week, three times, splenocytes. The format is in vivo. As for the experimental part:
(§1) The predicted antigen peptides were evaluated on the capability of inducing CTLs by using transgenic mice with an HLA gene introduced therein. Each peptide was dissolved in dimethyl sulfoxide (DMSO, FUJIFILM Wako Pure Chemical Corporation) at 10 mg/ml, and HLA transgenic mice were immunized with the resultant together with an adjuvant every week, three times in total. One week after that, the spleens were extracted, and the productions of IFN-γ were evaluated through IFN-γ ELISpot assay.
(§2) In ELISpot assay, CD8-positive T cells were isolated from splenocytes of immunized mice by means of an MACS, and suspended at 1×10^5 cells/well, and the resultant was used as effector cells. Splenocytes of unimmunized mice were subjected to radiation (100 kV, 10 mA, 100 Gy), and suspended at a concentration of 2×10^6 cells/well in Final medium supplemented with any one of the peptides at a concentration of 20 ug/ml, and the resultant was used as target cells.
(§3) FIG. 14, FIG. 15, and Table 1 show identification of multiple peptides each capable of inducing CD8-positive killer T cells (CTLs) reactive with the peptide in splenocytes of mice systemically expressing human HLA-A*24:02 or HLA-A*02:01 in their cells by screening, wherein a peptide vaccine of peptides predicted to be presented by HLA-A*24:02 or HLA-A*02:01 and synthesized from the amino acid sequences of the ten common cancer antigen full-length proteins was administered once per week, three times in total. The rates of inducing CTLs reactive with those peptides were 30 peptides in the 72 HLA-A*24:02-restricted common cancer antigen short peptides, and 38 peptides in the 73 HLA-A*02:01-restricted common cancer antigen short peptides; 68 peptides in the 145 peptides in total.

Assay [2] deals with HLA-A*24:02 Tgm. As to the kind of experiment: Long peptide vaccine, IFN-γ ELISpot, HLA-A*24:02 Tgm. The note with it: long peptide (15 to 21 mer) containing the short peptide, CTLs reactive with the short peptide. The assay is classed as in vivo, mice. As for the experimental part: as §2
The subject of assay [3] is HLA-A*02:01 transgenic mice. As to the kind of experiment: Peptide vaccine CTL induction, IFN-γ ELISpot, HLA-A*02:01 Tgm. The format is in vivo. The conditions noted are these: HLA-A*02:01-restricted short peptide vaccine once per week, three times, splenocytes. The procedure: as §1, §2, §3
Assay [4] deals with HLA-A*02:01 Tgm. As to the kind of experiment: Long peptide vaccine, IFN-γ ELISpot, HLA-A*02:01 Tgm. The assay is classed as in vivo, mice. The conditions noted are these: long peptide (15 to 21 mer) containing the short peptide, CTLs reactive with the short peptide. As for the experimental part:
as §2

On to ADFSGLLEKC [CA24 105], for which, in assay [1], the CTL induction entry is “Yes”. Besides, the Long peptide reaction entry in assay [2] was “No”. Consider AFEFVGEFF [A24-GPC3-17], for which the CTL induction result in assay [1] is “Yes”. Moreover, the Long peptide reaction result in assay [2] is “No”.

ALFTGWAAA [CLDN1-A02-2]: in assay [3], the CTL induction result is reported as “Yes”. The Long peptide reaction entry in assay [4] was “No”.

For the sequence AWSYGIVMW [CA24 123], in assay [1], the CTL induction result was “Yes”.

Turning to AYLEVTDVI [CA24 91], the CTL induction entry in assay [1] is “Yes”. For the sequence AYMLEVYGSL [LAT1-A24-5], the CTL induction result in assay [1] is reported as “Yes”. Besides, in assay [2], the Long peptide reaction entry is “No”.

As for AYYPEDLFI [A24-GPC3-11], in assay [1], the CTL induction result is given as “Yes”. The Long peptide reaction entry in assay [2] is “No”. On to CYAELGTTI [LAT1-A24-2], for which, in assay [1], the CTL induction result is “Yes”. The Long peptide reaction result in assay [2] is “Yes”. On to DFSGLLEKC [CA02 104], for which the CTL induction result in assay [3] is listed as “Yes”. In addition, the Long peptide reaction result in assay [4] is given as “No”. Take DFSGLLEKC [CA24 102]: in assay [1], the CTL induction entry is on record as “Yes”. The Long peptide reaction result in assay [2] is given as “No”. For DYIGPCKYI [CA24 54], in assay [1], the CTL induction entry was “Yes”. Take EFGQALFTGW [CLDN1-A24-5]: the CTL induction result in assay [1] is given as “Yes”. The Long peptide reaction entry in assay [2] is on record as “No”.

ELFDSLFPV [CA02 12]: in assay [3], the CTL induction entry was “Yes”. Regarding FFTDVSLYI [A02-GPC3-18], the CTL induction entry in assay [3] is on record as “Yes”. Regarding FFTDVSLYI [A24-GPC3-10], in assay [1], the CTL induction entry was “Yes”. As to FIFHKDLCQ [CA02 103], the CTL induction entry in assay [3] was “Yes”. Moreover, in assay [4], the Long peptide reaction result was “No”.

As to FIFHKDLCQA [CA02 101], the CTL induction entry in assay [3] was “Yes”. For the same sequence, in assay [4], the Long peptide reaction result is “No”. Take FLAELAYDL [CA02 11]: in assay [3], the CTL induction entry is on record as “Yes”. Besides, the Long peptide reaction entry in assay [4] is on record as “Yes”. As for FLIIQNAAV [A02-GPC3-12], in assay [3], the CTL induction entry is given as “Yes”. Further, the Long peptide reaction result in assay [4] is “No”. With FLLCLAGRAL [CA02 56], the CTL induction entry in assay [3] is “Yes”. Moreover, the Long peptide reaction entry in assay [4] is “No”.

In the case of FLRRGPFEL [CA02 21], in assay [3], the CTL induction result was “Yes”.

On to FTYEDPNEAV [CA02 127], for which the CTL induction entry in assay [3] is “Yes”. With GLDEEQHSV [CA02 121], the CTL induction result in assay [3] is “Yes”. In assay [4], the Long peptide reaction result is given as “Yes”. Take GQFTVIQLV [CA02 126]: the CTL induction entry in assay [3] is on record as “Yes”. As for GWAAASLCL [CLDN1-A24-7], the CTL induction result in assay [1] is “Yes”. Also, the Long peptide reaction result in assay [2] is “No”.

In the case of HFFATKCTL [CA24 55], the CTL induction result in assay [1] is given as “Yes”.

For HLIDKVISTI [CA02 82], the CTL induction entry in assay [3] is given as “Yes”. Turning to HYAKIAADF [CA24 21], in assay [1], the CTL induction entry is “Yes”. In addition, the Long peptide reaction result in assay [2] was “No”. With ILMVFSIWL [CA02 95], the CTL induction entry in assay [3] is on record as “Yes”. Besides, the Long peptide reaction entry in assay [4] is given as “Yes”. For ILPYCRPTF [CA24 98], the CTL induction result in assay [1] is on record as “Yes”. Besides, the Long peptide reaction entry in assay [2] is listed as “Yes”. Take ILSMIHPQL [LAT1-A02-4]: the CTL induction result in assay [3] was “Yes”. Moreover, the Long peptide reaction result in assay [4] is recorded as “No”. On to IVMWEVMSF [CA24 127], for which the CTL induction entry in assay [1] is given as “Yes”. With IYTWIEDHF [CA24 32], the CTL induction result in assay [1] is given as “Yes”. Also, the Long peptide reaction result in assay [2] was “No”. “KLCGPYEKF [CA24 23, hHSP105α HLA-A*24:02 short peptide]”: the CTL induction entry in assay [1] is reported as “peptide-specific IFN-γ production had been found”.

In the case of KLDVGNIVL [LAT1-A02-3], the CTL induction result in assay [3] is “Yes”. For the sequence KMKPLLPRV [CA0233], in assay [3], the CTL induction entry was “Yes”. With KYFTNCKQW [CA24 85], in assay [1], the CTL induction result is given as “Yes”. With KYVCVGTNM [CA24 95], the CTL induction result in assay [1] is listed as “Yes”.

With KYWREYILSL [A24-GPC3-06], the CTL induction entry in assay [1] is “Yes”. For the same sequence, the Long peptide reaction result in assay [2] is recorded as “No”. LLQKIEVPL [CA02 24]: the CTL induction result in assay [3] is “Yes”. Take LLTPVPSLV [LAT1-A02-2]: the CTL induction result in assay [3] is “Yes”. Consider LQLLGFILA [CLDN1-A02-6], for which the CTL induction result in assay [3] is listed as “Yes”. On to MLVAAIQSA [CA02 86], for which the CTL induction entry in assay [3] is “Yes”. The Long peptide reaction result in assay [4] was “No”.

Regarding MYIFPVHWQF [CA24 51], in assay [1], the CTL induction entry was “Yes”. Further, the Long peptide reaction entry in assay [2] is on record as “No”. Consider “NYGIYKQDL [CA24 25, hHSP105α HLA-A*24:02 short peptide]”, for which the CTL induction result in assay [1] is recorded as “peptide-specific IFN-γ production had been found”. As to “PFSKVLTFL [CA24 22, hHSP105α HLA-A*24:02 short peptide]”, in assay [1], the CTL induction entry is reported as “peptide-specific IFN-γ production had been found”. With “PYPEAKIGRF [CA24 24, hHSP105α HLA-A*24:02 short peptide]”, the CTL induction entry in assay [1] is “peptide-specific IFN-γ production had been found”. On to QLLTPVPSL [LAT1-A02-1], for which, in assay [3], the CTL induction entry is “Yes”. The Long peptide reaction entry in assay [4] is “No”. For the sequence RIYDMENVLL [A02-GPC3-10], in assay [3], the CTL induction result is recorded as “Yes”.

For the sequence RLEAGDHPV [CA02 52], in assay [3], the CTL induction entry was “Yes”. Also, in assay [4], the Long peptide reaction result was “No”. On to RYLTLDQVF [CA24 31], for which the CTL induction result in assay [1] is reported as “Yes”. Further, the Long peptide reaction entry in assay [2] is “No”. On to SLVSNVNIEL [CA02 83], for which the CTL induction entry in assay [3] is reported as “Yes”. In addition, the Long peptide reaction entry in assay [4] is recorded as “Yes”. Regarding STIHDSIQYV [A02-GPC3-14], the CTL induction entry in assay [3] is on record as “Yes”. The Long peptide reaction entry in assay [4] is reported as “Yes”.

SYGIVMWEV [CA24 124]: the CTL induction entry in assay [1] is “Yes”. Besides, the Long peptide reaction result in assay [2] is “Yes”. Turning to SYMAMIQFAI [CA24 34], the CTL induction entry in assay [1] is reported as “Yes”. Moreover, the Long peptide reaction result in assay [2] is reported as “No”. On to TFDSSCHFF [CA24 53], for which the CTL induction result in assay [1] is “Yes”. For the same sequence, the Long peptide reaction result in assay [2] is listed as “No”. On to TIHDSIQYV [CA02 13], for which the CTL induction entry in assay [3] is listed as “Yes”. In addition, the Long peptide reaction result in assay [4] was “Yes”.

As to TMNDSLSKI [CA0235], the CTL induction result in assay [3] was “Yes”. In addition, the Long peptide reaction entry in assay [4] is on record as “No”. For TVDGSTFSV [CA02 92], the CTL induction entry in assay [3] was “Yes”. Take VIADRPPPV [CA02 97]: in assay [3], the CTL induction entry was “Yes”. Moreover, in assay [4], the Long peptide reaction entry is given as “Yes”. As to VLDSLVSNV [CA02 81], in assay [3], the CTL induction entry is “Yes”. Turning to VLLGLFSTI [CA02 15], in assay [3], the CTL induction result is “Yes”. In addition, the Long peptide reaction result in assay [4] is on record as “Yes”. Consider VMSWIIPVF [LAT1-A24-6], for which, in assay [1], the CTL induction result is reported as “Yes”. On to WYGNRIVQEF [CLDN1-A24-2], for which the CTL induction entry in assay [1] is listed as “Yes”. Also, in assay [2], the Long peptide reaction entry is on record as “No”. YGNRIVQEF [CLDN1-A24-4]: the CTL induction entry in assay [1] is recorded as “Yes”. In addition, the Long peptide reaction result in assay [2] is “No”. Turning to YIFPVHWQF [CA24 52], the CTL induction entry in assay [1] is listed as “Yes”. The Long peptide reaction result in assay [2] is “No”. As to YIIEAFSHA [CA02 91], the CTL induction result in assay [3] is given as “Yes”. On to YLIGHGTKV [CA02 122], for which the CTL induction result in assay [3] is on record as “Yes”.

Regarding YMLEVYGSL [LAT1-A02-5], the CTL induction entry in assay [3] is on record as “Yes”. Also, in assay [4], the Long peptide reaction entry is “No”. Turning to YSYAGDNIV [CLDN1-A02-5], in assay [3], the CTL induction result is recorded as “Yes”. As to YYICQTLNV [CA24 97], in assay [1], the CTL induction entry was “Yes”. Also, in assay [2], the Long peptide reaction entry is reported as “No”.

(Values after patent publication US20250339504A1, “CANCER VACCINE WITH USE OF COMMON CANCER ANTIGEN COCKTAIL, TCR/CAR-T CELL THERAPEUTIC, COMPANION DIAGNOSTIC METHOD, AND METHOD FOR DIAGNOSING RISK OF CANCER ONSET BY DETECTING CIRCULATING TUMOR CELLS” (National Cancer Center, priority 2022, published 2025).)
